Measured values reported in article PMC4520450, “Procyanidins Negatively Affect the Activity of the Phosphatases of Regenerating Liver” (PLoS ONE, 2015).

What was measured:
[1] = system: HEK293 empty vector cell line; test: Transwell cell migration assay; format: cell-based; conditions: 16 h, empty vector cells
Experimental: (§1) To study if procyanidin C2 is able to inhibit PRL-1 and PRL-3 in cells, HEK293 cells were treated in a wound-healing assay (see the experimental procedures). […] As a control the empty vector cell line was again utilized. […] The migration speed was for all cell lines similar when treated with 50 μM of 9. To further corroborate these findings we performed additionally a transwell assay as an alternative way to study cell migration.
(§2) Fig 6 Wound healing abilities of PRL-1 or PRL-3 overexpressing or empty vector control HEK293 cell lines were analyzed in the presence of compound 9 or medium only. Cells were seeded at a concentration of 800,000 cells per insert and procyanidin C2 (9) was added at a concentration of 25 and 50 μM. A) Pictures of the wound gaps were taken at 0 h and 7 h for both conditions (with and without treatment). B) Quantification of the wound healing experiment. Speed of migration is shown for combined data from different replicates, as mean ± SD (n = 38–88). Two-sided t-tests with Welsh correction were performed for p < 0.05. ns = not significant;***: < 0.001; **: < 0.01; *: < 0.05. C) Effect of polyphenolic compounds in a transwell assay on the cell migration of HEK293 empty vector and PRL-3 overexpressing cell lines. Cells were seeded at a concentration of 100,000 cells per insert and procyanidin C2 (9) was added at a final concentration of 25 and 50 μM. Migration was allowed for 16 h before harvesting and staining with calcein AM for fluorescent readout. Mean ± SD (n = 60–72) is shown for combined data from different replicates. Two-sided t-tests with Welsh correction were performed for p < 0.05. ns = not significant. D) Quantification of wound healing experiment including blocking PRL-1 and PRL-3 with analog 3. Speed of migration is shown for combined data from different replicates, as mean ± SD (n = 63–82). Two-sided t-tests with Welsh correction were performed for p < 0.05.
(§3) HEK293 empty vector, PRL-1 and PRL-3 overexpressing cells were kept in selection medium (DMEM medium without Phenol red, supplemented with 10% FBS, 1% glutamine and 0.2% hygromycin and blasticidin) for one week until full confluency. Then, 0.1% tetracycline (1 mg/ml stock solution in ethanol) was added for induction of PRL-1 and PRL-3 expression in HEK293 PRL-1 and HEK PRL-3 wt 24 h prior plating on transwell inserts. For comparison, HEK293 empty vector was also treated with tetracycline. After 24 h, the medium was removed, cells were washed with PBS and starvation medium supplemented with 0.1% tetracycline was added. […] Then, 3x100 μL were taken from each well and transferred to a black assay plates and the relative concentration of the fluorescent product formed in the cells was determined by following the emission at 520 nm with excitation at 452 nm. […]

[2] = system: PRL-3 overexpressing HEK293 cell line; test: Transwell cell migration assay; format: cell-based; conditions: 16 h, PRL-3 overexpressing cells
Experimental: as §1, §2, §3

PRL-3 = target: T1, PRL-3 (Homo sapiens, UniProt O75365); test: DiFMUP phosphatase activity assay for PRLs; format: biochemical; conditions: 20 μM DiFMUP
T1 construct: His-TEV (cleaved yes); made in house
T1 sequence (O75365 whole entry): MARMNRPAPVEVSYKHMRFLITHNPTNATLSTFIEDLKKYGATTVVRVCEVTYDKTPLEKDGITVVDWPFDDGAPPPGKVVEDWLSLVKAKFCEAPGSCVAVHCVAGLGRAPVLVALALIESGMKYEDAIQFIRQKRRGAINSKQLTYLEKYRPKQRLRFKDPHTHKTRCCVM

Structure (SMILES): Oc1cc(O)c2c(c1)O[C@H](c1ccc(O)c(O)c1)[C@@H](O)[C@@H]2c1c(O)cc(O)c2c1O[C@H](c1ccc(O)c(O)c1)[C@@H](O)[C@@H]2c1c(O)cc(O)c2c1O[C@H](c1ccc(O)c(O)c1)[C@@H](O)C2 [Procyanidin C2 (9), Procyanidin C2]
- cell migration, transwell ([1]; 25 μM): did not lead to a significant change in cell migration
- cell migration, transwell ([1]; 50 μM): significant increase in cell migration
- cell migration, transwell ([2]; 25 μM): did not lead to a significant change in cell migration
- cell migration, transwell ([2]; 50 μM): significant decrease in migration
- PRL-3 phosphatase activity compared to the control (PRL-3; 12.5 μM, 30 min incubation, 50 nM enzyme): 75–85%
- inhibition of PRL-3 activity (PRL-3; 25 μM and 50 μM): inhibited in a concentration dependent manner
